Laboratory results as given in patent publication EP4667467A1, “PROTAC DEGRADERS OF MLLT1 AND/OR MLLT3” (Dark Blue Therapeutics Ltd, priority 2024, dated 2025).

Target: T1, MLLT1 (Homo sapiens, UniProt Q03111)
T1 construct: endogenous in cells; host or cells: MV4-11 (ATCC CRL-9591)
T1 sequence (Q03111 1-559): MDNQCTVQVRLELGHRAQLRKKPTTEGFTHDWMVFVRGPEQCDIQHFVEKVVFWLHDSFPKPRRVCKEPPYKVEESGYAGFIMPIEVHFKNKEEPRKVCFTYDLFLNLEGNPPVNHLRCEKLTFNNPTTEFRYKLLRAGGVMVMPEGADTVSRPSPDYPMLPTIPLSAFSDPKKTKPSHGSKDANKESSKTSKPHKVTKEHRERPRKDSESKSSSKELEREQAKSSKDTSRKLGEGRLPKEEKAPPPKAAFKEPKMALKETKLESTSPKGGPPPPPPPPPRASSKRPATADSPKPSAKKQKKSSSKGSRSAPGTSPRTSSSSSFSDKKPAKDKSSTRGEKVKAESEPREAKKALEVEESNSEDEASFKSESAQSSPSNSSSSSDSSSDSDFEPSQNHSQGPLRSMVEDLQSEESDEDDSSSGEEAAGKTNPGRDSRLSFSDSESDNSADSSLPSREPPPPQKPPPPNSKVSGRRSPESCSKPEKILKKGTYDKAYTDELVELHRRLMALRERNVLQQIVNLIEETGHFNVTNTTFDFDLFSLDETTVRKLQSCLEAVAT
Assay: MLLT1 Degradation Assay (JESS automated chemiluminescent detection, MV4-11 cells)
Format: cell-based
Settings: 24h, with respect to DMSO control; for MLLT1 % Degradation @ 0.01 µM: 0.01 µM (10 nM) test compound; for MLLT1 % Degradation @ 0.1 µM: 0.1 µM (100 nM) test compound; for MLLT 1 % Degradation @ 1 µM: 1 µM (1000 nM) test compound
Experimental: MLLT1 degradation efficacy of compounds were tested in an automated chemiluminescent detection system (JESS, Cat# 004-650). […] 10 mM DMSO stocks were prepared, and cells were treated with three concentrations of test compounds viz. 1000, 100 and 10 nM at a final DMSO concentration of 0.1% and incubated for 24h at 37°C, 5% CO2. […] Post run, data were analysed using "Compass for SW" software for chemiluminescent detection. The peak area for each band was used for the calculation of MLLT1 degradation with respect to DMSO control. Data is shown as "MLLT1 % degradation".

SMILES | MLLT1 % Degradation @ 0.1 µM | MLLT1 % Degradation @ 0.01 µM | MLLT 1 % Degradation @ 1 µM
CN1CCC[C@@H]1c1cc2cnc(NC(=O)c3ccc(CCCC#Cc4cccc(N5CCC(=O)NC5=O)n4)cc3)cc2[nH]1 [Example 63, (R)-4-(5-(6-(2,4-dioxotetrahydropyrimidin-1(2H)-yl)pyridin-2-yl)pent-4-yn-1-yl)-N-(2-(1-methylpyrrolidin-2-yl)-1H-pyrrolo[3,2-c]pyridin-6-yl)benzamide] | D (Category D: D < 25% degradation) | D (Category D: D < 25% degradation) | C (Category C: 25% ≤ C < 50% degradation)
CN1CCC[C@@H]1c1cc2cnc(NC(=O)c3cnc(N4CCC(C#Cc5cccc6c5CN(C5CCC(=O)NC5=O)C6=O)CC4)nc3)cc2[nH]1 (stereo partly drawn) [Example 65, 2-(4-((2-(2,6-dioxopiperidin-3-yl)-1-oxoisoindolin-4-yl)ethynyl)piperidin-1-yl)-N-(2-((R)-1-methylpyrrolidin-2-yl)-1H-pyrrolo[3,2-c]pyridin-6-yl)pyrimidine-5-carboxamide] | B (Category B: 50% ≤ B < 75% degradation) | B (Category B: 50% ≤ B < 75% degradation) | B (Category B: 50% ≤ B < 75% degradation)
CN1CCC[C@@H]1c1cc2cnc(NC(=O)c3ccc(CCC#Cc4cccc5c4n(C)c(=O)n5C4CCC(=O)NC4=O)cc3)cc2[nH]1 (stereo partly drawn) [Example 53, 4-(4-(1-(2,6-dioxopiperidin-3-yl)-3-methyl-2-oxo-2,3-dihydro-1H-benzo[d]imidazol-4-yl)but-3-yn-1-yl)-N-(2-((R)-1-methylpyrrolidin-2-yl)-1H-pyrrolo[3,2-c]pyridin-6-yl)benzamide] | A (Category A: A ≥ 75% degradation) | A (Category A: A ≥ 75% degradation) | B (Category B: 50% ≤ B < 75% degradation)
CN1CCC[C@@H]1c1cc2cnc(NC(=O)c3ccc(OCC#Cc4cccc5c4CN(C4CCC(=O)NC4=O)C5=O)cc3F)cc2[nH]1 (stereo partly drawn) [Example 57, 4-((3-(2-(2,6-dioxopiperidin-3-yl)-1-oxoisoindolin-4-yl)prop-2-yn-1-yl)oxy)-2-fluoro-N-(2-((R)-1-methylpyrrolidin-2-yl)-1H-pyrrolo[3,2-c]pyridin-6-yl)benzamide] | A (Category A: A ≥ 75% degradation) | A (Category A: A ≥ 75% degradation) | A (Category A: A ≥ 75% degradation)
CN1CCC[C@@H]1c1cc2cnc(NC(=O)c3ccc(OCCCC#Cc4cccc5c4CN(C4CCC(=O)NC4=O)C5=O)cc3)cc2[nH]1 (stereo partly drawn) [Example 56, 4-((5-(2-(2,6-dioxopiperidin-3-yl)-1-oxoisoindolin-4-yl)pent-4-yn-1-yl)oxy)-N-(2-((R)-1-methylpyrrolidin-2-yl)-1H-pyrrolo[3,2-c]pyridin-6-yl)benzamide] | A (Category A: A ≥ 75% degradation) | A (Category A: A ≥ 75% degradation) | A (Category A: A ≥ 75% degradation)
CN1CCC[C@@H]1c1cc2cnc(NC(=O)CCCCCCCCNc3cccc4c3C(=O)N(C3CCC(=O)NC3=O)C4=O)cc2[nH]1 (stereo partly drawn) [Example 30, 9-{[2-(2,6-dioxopiperidin-3-yl)-1,3-dioxoisoindol-4-yl]amino}-N-{2-[(2R)-1-methylpyrrolidin-2-yl]-1H-pyrrolo[3,2-c]pyridin-6-yl}nonanamide] | B (Category B: 50% ≤ B < 75% degradation) | C (Category C: 25% ≤ C < 50% degradation) | A (Category A: A ≥ 75% degradation)
CN1CCC[C@@H]1c1cc2cnc(NC(=O)CCCCC3CCN(c4cccc5c4C(=O)N(C4CCC(=O)NC4=O)C5=O)CC3)cc2[nH]1 (stereo partly drawn) [Example 42, 5-(1-(2-(2,6-Dioxopiperidin-3-yl)-1,3-dioxoisoindolin-4-yl)piperidin-4-yl)-N-(2-((R)-1-methylpyrrolidin-2-yl)-1H-pyrrolo[3,2-c]pyridin-6-yl)pentanamide] | B (Category B: 50% ≤ B < 75% degradation) | – | B (Category B: 50% ≤ B < 75% degradation)
CN1CCCC1c1cc2cnc(NC(=O)c3ccc(OCC#Cc4cccc5c4CN(C4CCC(=O)NC4=O)C5=O)cn3)cc2[nH]1 (centres unmarked) [Example 50, 5-[3-[2-(2,6-dioxo-3-piperidyl)-1-oxo-isoindolin-4-yl]prop-2-ynoxy]-N-[2-(1-methylpyrrolidin-2-yl)-1H-pyrrolo[3,2-c]pyridin-6-yl]pyridine-2-carboxamide] | B (Category B: 50% ≤ B < 75% degradation) | B (Category B: 50% ≤ B < 75% degradation) | B (Category B: 50% ≤ B < 75% degradation)

The next lines start with results.

MLLT1 % Degradation @ 0.1 µM | SMILES | MLLT1 % Degradation @ 0.01 µM | MLLT 1 % Degradation @ 1 µM
A (Category A: A ≥ 75% degradation) | CN1CCC[C@@H]1c1cc2cnc(NC(=O)c3ccc(CCC4CCN(c5cccc6c5C(=O)N(C5CCC(=O)NC5=O)C6=O)CC4)cc3)cc2[nH]1 (stereo partly drawn) [Example 4, 4-(2-(1-(2-(2,6-dioxopiperidin-3-yl)-1,3-dioxoisoindolin-4-yl)piperidin-4-yl)ethyl)-N-(2-((R)-1-methylpyrrolidin-2-yl)-1H-pyrrolo[3,2-c]pyridin-6-yl)benzamide] | B (Category B: 50% ≤ B < 75% degradation) | A (Category A: A ≥ 75% degradation)
A (Category A: A ≥ 75% degradation) | CN1CCC[C@@H]1c1cc2cnc(NC(=O)c3ccc(CC4CCN(c5cccc6c5C(=O)N(C5CCC(=O)NC5=O)C6=O)CC4)cc3)cc2[nH]1 (stereo partly drawn) [Example 3, 4-((1-(2-(2,6-dioxopiperidin-3-yl)-1,3-dioxoisoindolin-4-yl)piperidin-4-yl)methyl)-N-(2-((R)-1-methylpyrrolidin-2-yl)-1H-pyrrolo[3,2-c]pyridin-6-yl)benzamide] | C (Category C: 25% ≤ C < 50% degradation) | A (Category A: A ≥ 75% degradation)
A (Category A: A ≥ 75% degradation) | CCN1CCC[C@@H]1c1cc2cnc(NC(=O)c3ccc(N4CCC(CC#Cc5cccc6c5CN(C5CCC(=O)NC5=O)C6=O)CC4)nc3)cc2[nH]1 (stereo partly drawn) [Example 73, 6-(4-(3-(2-(2,6-dioxopiperidin-3-yl)-1-oxoisoindolin-4-yl)prop-2-yn-1-yl)piperidin-1-yl)-N-(2-((R)-1-ethylpyrrolidin-2-yl)-1H-pyrrolo[3,2-c]pyridin-6-yl)nicotinamide] | B (Category B: 50% ≤ B < 75% degradation) | B (Category B: 50% ≤ B < 75% degradation)
A (Category A: A ≥ 75% degradation) | CN1CCC[C@@H]1c1cc2cnc(NC(=O)c3cccc(C4CCN(c5cccc6c5C(=O)N(C5CCC(=O)NC5=O)C6=O)CC4)c3)cc2[nH]1 (stereo partly drawn) [Example 14, 3-(1-(2-(2,6-dioxopiperidin-3-yl)-1,3-dioxoisoindolin-4-yl)piperidin-4-yl)-N-(2-((R)-1-methylpyrrolidin-2-yl)-1H-pyrrolo[3,2-c]pyridin-6-yl)benzamide] | B (Category B: 50% ≤ B < 75% degradation) | A (Category A: A ≥ 75% degradation)
